Settings: Gas, Vibrating wire viscometry

FS(F)(F)(F)(F)F [sulfur hexafluoride]
Settings	viscosity [mPa·s]
375 K, 11030 kPa	0.06052
375 K, 11466 kPa	0.06322
375 K, 12235 kPa	0.0678
375 K, 12730 kPa	0.07044
375 K, 13213 kPa	0.07319
375 K, 13867 kPa	0.07655
375 K, 14447 kPa	0.07948
375 K, 15713 kPa	0.08527
375 K, 16802 kPa	0.09
400 K, 100.75 kPa	0.0197
400 K, 127.69 kPa	0.01971
400 K, 153.61 kPa	0.01972
400 K, 174.48 kPa	0.01973
400 K, 200.5 kPa	0.01973
400 K, 224.7 kPa	0.01975
400 K, 249.97 kPa	0.01975
400 K, 276.92 kPa	0.01976
400 K, 316.57 kPa	0.01977
400 K, 356.06 kPa	0.01979
400 K, 387.16 kPa	0.0198
400 K, 431.42 kPa	0.01981
400 K, 458.7 kPa	0.01982
400 K, 482.84 kPa	0.01983
400 K, 520.38 kPa	0.01984
400 K, 569.64 kPa	0.01987
400 K, 636.33 kPa	0.01989
400 K, 669.9 kPa	0.0199
400 K, 702.5 kPa	0.01991
400 K, 753.74 kPa	0.01994
400 K, 791.41 kPa	0.01995
400 K, 818.44 kPa	0.01996
400 K, 853.97 kPa	0.01998
400 K, 930.59 kPa	0.02001
400 K, 972.98 kPa	0.02003
400 K, 1025.6 kPa	0.02006
400 K, 1088.2 kPa	0.02009
400 K, 1153.3 kPa	0.02012
400 K, 1240.9 kPa	0.02017
400 K, 1319.7 kPa	0.02022
400 K, 1397.4 kPa	0.02025
400 K, 1462.5 kPa	0.02029
400 K, 1615.7 kPa	0.02039
400 K, 1688.5 kPa	0.02043
400 K, 1768 kPa	0.02049
400 K, 1876.4 kPa	0.02057
400 K, 1956 kPa	0.02063
400 K, 2349.8 kPa	0.02093
400 K, 2474.2 kPa	0.02104
400 K, 2539.4 kPa	0.02109
400 K, 2835.4 kPa	0.02138
400 K, 3021.7 kPa	0.02156
400 K, 3266.3 kPa	0.02184
400 K, 3463.7 kPa	0.02205
400 K, 3614.2 kPa	0.02225
400 K, 3864.1 kPa	0.02256
400 K, 4152.9 kPa	0.02298
400 K, 4564.1 kPa	0.02363
400 K, 4898.5 kPa	0.02421
400 K, 5193.2 kPa	0.02477
400 K, 5460.7 kPa	0.02531
400 K, 5742.7 kPa	0.02594
400 K, 6016.6 kPa	0.02658
400 K, 6359.6 kPa	0.02746
400 K, 6659.9 kPa	0.02831
400 K, 6950.7 kPa	0.02917
400 K, 7241 kPa	0.03009
400 K, 7553 kPa	0.03115
400 K, 7833.9 kPa	0.03216
400 K, 8142 kPa	0.03332
400 K, 8490.6 kPa	0.03475
400 K, 8799 kPa	0.03604
400 K, 9139.9 kPa	0.0375
400 K, 9483.5 kPa	0.03903
400 K, 9833.2 kPa	0.0407
400 K, 10191 kPa	0.04234
400 K, 10589 kPa	0.04429
400 K, 11000 kPa	0.04619
400 K, 11434 kPa	0.04827
400 K, 11902 kPa	0.05055
400 K, 12397 kPa	0.05295
400 K, 12979 kPa	0.05567
400 K, 13719 kPa	0.05901
400 K, 14342 kPa	0.06179
400 K, 15061 kPa	0.06486
400 K, 15882 kPa	0.0684
400 K, 16792 kPa	0.07201
400 K, 17814 kPa	0.076
400 K, 18718 kPa	0.07939
400 K, 19958 kPa	0.08386
425 K, 94.41 kPa	0.02078
425 K, 120.34 kPa	0.0208
425 K, 155.2 kPa	0.02081
425 K, 171.36 kPa	0.02081
425 K, 192.07 kPa	0.02082
425 K, 205.12 kPa	0.02083
425 K, 228.29 kPa	0.02084
425 K, 263.75 kPa	0.02085
425 K, 289.54 kPa	0.02086
425 K, 311.35 kPa	0.02086
425 K, 345.33 kPa	0.02088
425 K, 374.1 kPa	0.02088
425 K, 392.73 kPa	0.02089
425 K, 424.79 kPa	0.0209
425 K, 466.85 kPa	0.02092
425 K, 503.16 kPa	0.02093
425 K, 552.86 kPa	0.02095
425 K, 598.07 kPa	0.02097
425 K, 629.86 kPa	0.02098
425 K, 668.63 kPa	0.021
425 K, 715.37 kPa	0.02101
425 K, 764.24 kPa	0.02103
425 K, 813.31 kPa	0.02105
425 K, 867.54 kPa	0.02108
425 K, 939.66 kPa	0.02111
425 K, 997 kPa	0.02114
425 K, 1067.1 kPa	0.02117
425 K, 1141.5 kPa	0.02121
425 K, 1213.4 kPa	0.02124
425 K, 1299.4 kPa	0.02129
425 K, 1385.6 kPa	0.02133
425 K, 1442.8 kPa	0.02137
425 K, 1506.3 kPa	0.02141
425 K, 1587.6 kPa	0.02145
425 K, 1656.3 kPa	0.02149
425 K, 1757.6 kPa	0.02155
425 K, 1833.5 kPa	0.0216
425 K, 1920.5 kPa	0.02166
425 K, 2344.2 kPa	0.02196
425 K, 2479.6 kPa	0.02206
425 K, 2578.5 kPa	0.02214
425 K, 2931.1 kPa	0.02244
425 K, 3150.4 kPa	0.02264
425 K, 3325.5 kPa	0.02282
425 K, 3586.1 kPa	0.02307
425 K, 3797.1 kPa	0.0233
425 K, 4066.4 kPa	0.02362
425 K, 4298.8 kPa	0.02388
425 K, 4546.2 kPa	0.0242
425 K, 4863.6 kPa	0.02464
425 K, 5124.6 kPa	0.02501
425 K, 5454.2 kPa	0.02553
425 K, 5739.4 kPa	0.026
425 K, 6056.4 kPa	0.02654
425 K, 6339.5 kPa	0.02706
425 K, 6654.3 kPa	0.02768
425 K, 7006 kPa	0.0284
425 K, 7363.2 kPa	0.02921
425 K, 7712.7 kPa	0.03006
425 K, 8064.1 kPa	0.03097
425 K, 8392.3 kPa	0.03179
425 K, 8760.7 kPa	0.03277
425 K, 9135.4 kPa	0.03386
425 K, 9514.5 kPa	0.03501
425 K, 9876.1 kPa	0.03614
425 K, 10296 kPa	0.03744
425 K, 10899 kPa	0.03948
425 K, 11563 kPa	0.04171
425 K, 11725 kPa	0.04223
425 K, 12199 kPa	0.04389
425 K, 12731 kPa	0.04579
425 K, 13246 kPa	0.04767
425 K, 14152 kPa	0.0509
425 K, 14767 kPa	0.05309
425 K, 15462 kPa	0.05563
425 K, 16201 kPa	0.05822
425 K, 17025 kPa	0.06094
425 K, 17904 kPa	0.06397
425 K, 18751 kPa	0.06707
425 K, 19579 kPa	0.06993
425 K, 20442 kPa	0.07271

Source: the NIST ThermoML archive (doi:10.1021/je049612f)
